From PubChem BioAssay (NCI) come the findings set out here.

This assay has as its system MDA-MB-468 breast. As to the kind of experiment: NCI tumour cell line growth inhibition, 48 h.

Where “and” joins values, the source holds several entries; their conditions need not be identical. Equal values may be shown once.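 These data come from cells grown in 96-well plates and exposed to compound for 48 hours at five concentrations. Abbreviation: GI50, concentration required for 50% inhibition of growth. At the TGI there is no net growth.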 Some results are limits rather than exact numbers.

With `Cc1ccccc1NC(=O)c1sc2nc3c(cc2c1N)C(=O)CCC3`, the GI50 is 0.529 µM and the TGI was determined as 6.21 µM.
As to `COC(=O)[C@]12CC[C@@H](C)[C@H](C)[C@@H]1C1=CC[C@@H]3[C@@]4(C)C=C(O)C(=O)C(C)=C4CC[C@@]3(C)[C@]1(C)CC2`, the GI50 is 9.95 µM and the TGI is 26.9 µM.
On to `CCOC(=O)c1cnc2c(cnn2CC)c1NN=C(C)C`, for which the GI50 was 31.3 µM and the TGI is over 100 µM.
`CC(C)(C)n1cc(-c2ccnc(NCCNS(=O)(=O)c3cccc4ccccc34)c2)c(-c2cccc(F)c2)n1`: the GI50 is 11 µM and the TGI stood at 33.6 µM.
In the case of `COc1ccc2sc3c(NCCCNCCO)nc4ccccc4c3c(=O)c2c1`, the GI50 is 1.73 µM and the TGI is 3.41 µM.
Taken in the same sequence, the figures for `CN(C)CCCC(=O)Nc1ccc(Cn2nnc3c2C(=O)c2nnn(Cc4ccc(NC(=O)CCCN(C)C)cc4)c2C3=O)cc1` were 1.3 µM and 2.97 µM.
In the case of `O=C1C(=O)c2c(nc3ncccn23)-c2ccccc21`, the GI50 was 0.205 µM and the TGI is 0.555 µM.
Consider `CCC(C)CC(CC)NCCN1CCN(C(CC)CC(C)CC)C1=S` (stereo not given), for which the GI50 is 1.54 µM and the TGI worked out at 2.89 µM.
With `CC(C)(C)c1ccc(C(=O)Nc2sc3c(c2C(N)=O)CC/C(=N\O)C3)cc1`, the GI50 is 3.06 µM and the TGI is 9.38 µM.
As to `Oc1ccc(-c2nc3ccc4[nH]ncc4c3c3c2CCCC3)c2cccnc12`, the GI50 was 0.787 µM and the TGI was found to be 2.02 µM.
As to `CC(=O)OC1=C2C(CC3C4CC=C5CC(OC(C)=O)CCC5(C)C4CCC23C)C2C(=O)N(Cc3ccccc3)C(=O)C2C1` (stereo not given), the GI50 was 2.84 µM and the TGI was determined as 14.9 µM.
For the compound `COc1ccc(-c2[nH]ncc2-c2cc(OC)c(OC)c(OC)c2)cc1`, the GI50 is under 0.01 µM and the TGI is 5.56 µM.
Turning to `c1ccc2c(c1)ccc1c3ccccc3ccc21`, the GI50 is 8.59 µM and the TGI is over 50 µM.
For the compound `C#CC#CC#CC#CC#CC#CC#CC#CCC1OC[C@H](COC(=O)O[C@@H](C(=O)O[C@H]2C[C@@]3(O)[C@@H](OC(=O)c4ccccc4)[C@@H]4[C@]5(OC(C)=O)CO[C@@H]5C[C@H](O)[C@@]4(C)C(=O)[C@H](OC(C)=O)C(=C2C)C3(C)C)[C@@H](NC(=O)c2ccccc2)c2ccccc2)O1` (stereo not given in full), the GI50 was 0.139 µM and the TGI was determined as 0.922 µM.
As to `C=C1C(=O)O[C@H]2[C@H]1CC/C(COC(=O)C(=O)c1cn(C)c3ccc(OC)cc13)=C\CC[C@@]1(C)O[C@@H]21`, the GI50 is 1.73 µM and the TGI stood at 2.92 µM.
The corresponding values for `CN1CCN(c2cc(Nc3cc(C4CC4)[nH]n3)nc(Nc3ccc(CC(=O)NCc4cccc(F)c4)cc3)n2)CC1` are 2.6 µM and 16.7 µM.
The corresponding values for `COc1cc(/C=C/C(=O)c2cc(OC)c(OC)c(OC)c2)cc(OC)c1OC` are 3.07 µM and 14.8 µM.
For `NCC(=O)CCC(=O)O`, the GI50 was over 100 µM and the TGI is over 100 µM.
In the case of `CC(C)[C@@H](CS(=O)(=O)C(C)C)N1C(=O)[C@@](C)(CC(=O)O)C[C@H](c2cccc(Cl)c2)[C@H]1c1ccc(Cl)cc1`, the GI50 is 11.6 µM and the TGI was determined as 45 µM.
In the case of `Nc1c(O)c(S(=O)(=O)O)c(O)c2c1C(=O)c1ccccc1C2=O`, the GI50 was 2.1 µM and the TGI is 5.98 µM.
Taken in the same sequence, the figures for `CC12CCC(O)CC1CCC1C2CCC2(C)C(C3=CC(=O)OC3)CCC12` (stereo not given) were 5.29 µM and over 42.9 µM.
Take `COc1cc(C2c3cc4c(cc3OC(N3CCOCC3)C2C)OCO4)cc(OC)c1OC(C)=O` (stereo not given): the GI50 was 20 µM and the TGI was over 100 µM.
`COc1ccc(Cn2cc(Cn3c(=O)c(-c4nc5ccccc5[nH]4)cc4ccccc43)nn2)c(OC)c1OC`: the GI50 is 0.112 µM and 0.254 µM.
Turning to `COc1ccc(-c2nn(-c3cccc(NC(=O)Nc4cccc(C(F)(F)F)c4)c3)cc2-c2ccncc2)cc1Cl`, the GI50 was 1.54 µM and the TGI worked out at 6.47 µM.
The corresponding values for `Nc1nc(Nc2ccc3c(c2)CCC(N2CCCC2)CC3)nn1-c1cc2c(nn1)-c1ccccc1CCC2` (stereo not given) are 1.4 µM and 2.9 µM.
Regarding `Clc1ccc(-c2cn(-c3ccccc3)c(-c3ccccc3)n2)c(Cl)c1`, the GI50 is over 50 µM and the TGI was over 50 µM.
In the case of `COC1CCC(n2c([C@@H]3CCCC(=O)N3c3ccc(F)c(F)c3)nc3cc(-c4c(C)noc4C)ccc32)CC1` (stereo not given in full), the GI50 was 3.95 µM and the TGI came out at 28.4 µM.
Regarding `CN1c2ccccc2C(C)(C)C12CC(c1ccc(Cl)c(S(=O)(=O)N3CCCC3)c1)=NO2` (stereo not given), the GI50 is over 100 µM and the TGI was over 100 µM.
On to `COc1cccc(C2C(C#N)=C(N)Oc3cc(OC)ccc32)c1` (stereo not given), for which the GI50 was 0.0322 µM and the TGI was over 60 µM.
For the compound `NC(N)=Nc1ccc(Oc2ccc(Nc3ccc(Cl)c(C(F)(F)F)c3)cc2)cc1`, the GI50 was 1.55 µM and the TGI worked out at 3.39 µM.
Consider `COc1ccc(C(=O)N/N=C/c2ccc(O)cc2O)cc1Nc1ccnc(C(F)(F)F)c1`, for which the GI50 was 0.365 µM and the TGI is 68.1 µM.
Taken in the same sequence, the figures for `CC1(C)CC[C@]2(C(=O)O)CC[C@]3(C)[C@H](CC[C@@H]4[C@@]5(C)CCC(=O)C(C)(C)[C@@H]5CC[C@]43C)[C@H]2[C@H]1OC(=O)C(F)(F)F` were 5.83 µM and 21.1 µM.
In the case of `CCCCc1nc2cc(/C=C/C(=O)NO)ccc2n1CCN(CC)CC`, the GI50 is 0.177 µM and the TGI was 1.91 µM.
